# Source: ChEMBL document CHEMBL1201862, “PubChem BioAssay data set” (2004)
# The source made the active and inactive calls.
# Assays:
# [1] = viability of uninfected HEp-2 cells – cell-based, HTS, cytotoxicity control for RSV inhibitor project, dose response (AID 2410); type: functional; conditions: human respiratory syncytial virus
# [2] = Trypanosoma cruzi growth suppression in host cells – NIH3T3 host cells, beta-gal luminescence, confirmation (AID 2044); type: functional, cell-based;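 also: intracellular parasites grown in NIH/3T3 mouse fibroblasts as host cells; luminescent beta-galactosidase reporter signal from transgenic T. cruzi replicating inside host cells; inhibitors lower the luminescence signal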
# [3] = NIH3T3 cell viability loss – ATP luminescence, mouse fibroblasts, counter-screen, dose response (AID 2010); type: functional, cell-based;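 also: cells exposed to compound for about 90 hours before reading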
# [4] = target: Glucose-6-phosphate 1-dehydrogenase (Homo sapiens, UniProt P11413); assay: inhibition of Homo sapiens G6PD, dose series – biochemical, fluorescence, selectivity assay for P. falciparum G6PD inhibitor project, dose response (AID 504792); type: functional
# Sequence of Glucose-6-phosphate 1-dehydrogenase (P11413 whole entry): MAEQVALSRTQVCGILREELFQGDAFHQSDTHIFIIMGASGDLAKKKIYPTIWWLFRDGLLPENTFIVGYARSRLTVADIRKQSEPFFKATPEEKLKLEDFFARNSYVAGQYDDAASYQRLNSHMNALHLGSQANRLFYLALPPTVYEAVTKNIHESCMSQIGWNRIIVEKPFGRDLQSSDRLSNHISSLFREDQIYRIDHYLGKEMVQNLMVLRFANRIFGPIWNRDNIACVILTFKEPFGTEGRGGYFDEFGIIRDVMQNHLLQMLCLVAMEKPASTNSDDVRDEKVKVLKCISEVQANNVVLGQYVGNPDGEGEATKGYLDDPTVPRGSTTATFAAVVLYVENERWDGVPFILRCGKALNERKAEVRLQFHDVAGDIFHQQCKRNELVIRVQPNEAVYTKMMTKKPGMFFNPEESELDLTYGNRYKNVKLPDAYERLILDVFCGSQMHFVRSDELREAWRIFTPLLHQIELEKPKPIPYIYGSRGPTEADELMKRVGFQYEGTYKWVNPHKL
# [5] = cells; type: functional, cell-based
# [6] = cells; type: functional, cell-based; remark: listed apart in the source
# [7] = target: Protein Wnt-3a (Mus musculus, UniProt P27467); assay: SAR analysis of small molecule antagonists of Gli-SUFU in a Wnt3a luminescent reporter assay.; type: functional
# Sequence of Protein Wnt-3a (P27467 whole entry): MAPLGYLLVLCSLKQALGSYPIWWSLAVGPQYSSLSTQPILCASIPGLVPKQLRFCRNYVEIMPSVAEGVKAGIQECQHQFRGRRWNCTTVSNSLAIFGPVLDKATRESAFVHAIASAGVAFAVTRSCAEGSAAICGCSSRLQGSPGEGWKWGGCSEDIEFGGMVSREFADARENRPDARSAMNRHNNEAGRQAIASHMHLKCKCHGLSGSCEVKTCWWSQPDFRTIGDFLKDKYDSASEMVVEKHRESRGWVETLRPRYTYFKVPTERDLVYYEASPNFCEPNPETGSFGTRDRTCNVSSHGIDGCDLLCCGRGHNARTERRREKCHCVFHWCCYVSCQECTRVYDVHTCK
# [8] = target: Tyrosyl-DNA phosphodiesterase 2 (Homo sapiens, UniProt O95551); assay: potency against TDP2 phosphodiesterase activity – biochemical, epi absorbance, IC50, dose response (AID 743297)
# Sequence of Tyrosyl-DNA phosphodiesterase 2 (O95551 whole entry): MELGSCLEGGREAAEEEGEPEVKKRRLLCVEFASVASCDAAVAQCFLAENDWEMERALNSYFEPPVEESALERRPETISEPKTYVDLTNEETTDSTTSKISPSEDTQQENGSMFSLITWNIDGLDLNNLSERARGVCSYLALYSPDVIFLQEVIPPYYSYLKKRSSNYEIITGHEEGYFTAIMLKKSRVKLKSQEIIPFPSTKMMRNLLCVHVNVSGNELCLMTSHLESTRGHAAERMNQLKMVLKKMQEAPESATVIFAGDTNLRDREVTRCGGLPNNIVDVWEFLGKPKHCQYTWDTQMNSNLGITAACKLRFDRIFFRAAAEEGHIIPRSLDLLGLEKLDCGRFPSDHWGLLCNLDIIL
# [9] = T. cruzi growth inhibition in host cells, dose response, cell-based, plate reader, dry powder, set 2 (AID 652275); type: functional
# [10] = target: Tyrosine-protein phosphatase non-receptor type 11 (Homo sapiens, UniProt Q06124); assay: PTPN11 enzyme inhibitors – biochemical, selectivity assay for STEP inhibitor project, dose response (AID 602367); type: functional; conditions: read-out: IC50_Mean
# Sequence of Tyrosine-protein phosphatase non-receptor type 11 (Q06124 whole entry): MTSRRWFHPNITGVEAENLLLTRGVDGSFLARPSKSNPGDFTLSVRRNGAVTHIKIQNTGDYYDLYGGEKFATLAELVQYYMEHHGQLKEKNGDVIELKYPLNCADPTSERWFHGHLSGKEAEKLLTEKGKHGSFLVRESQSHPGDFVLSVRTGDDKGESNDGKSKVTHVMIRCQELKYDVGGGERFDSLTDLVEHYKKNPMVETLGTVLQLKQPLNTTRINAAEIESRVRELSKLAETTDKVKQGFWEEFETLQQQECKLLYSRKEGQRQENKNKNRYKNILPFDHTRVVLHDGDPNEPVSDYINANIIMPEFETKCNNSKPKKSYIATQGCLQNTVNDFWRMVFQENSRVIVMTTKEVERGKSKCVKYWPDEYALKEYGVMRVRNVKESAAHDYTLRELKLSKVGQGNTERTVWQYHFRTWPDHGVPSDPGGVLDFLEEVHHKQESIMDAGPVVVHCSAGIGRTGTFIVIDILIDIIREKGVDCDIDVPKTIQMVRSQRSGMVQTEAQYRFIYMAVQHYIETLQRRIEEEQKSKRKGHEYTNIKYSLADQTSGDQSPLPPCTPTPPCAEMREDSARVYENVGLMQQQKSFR
# [11] = target: Tyrosine-protein phosphatase non-receptor type 5 (Homo sapiens, UniProt P54829); assay: PTPN5 enzyme inhibition – biochemical, fluorescence intensity, uHTS hits, confirmation (AID 602372); type: functional; conditions: read-out: IC50_Mean
# Sequence of Tyrosine-protein phosphatase non-receptor type 5 (P54829 whole entry): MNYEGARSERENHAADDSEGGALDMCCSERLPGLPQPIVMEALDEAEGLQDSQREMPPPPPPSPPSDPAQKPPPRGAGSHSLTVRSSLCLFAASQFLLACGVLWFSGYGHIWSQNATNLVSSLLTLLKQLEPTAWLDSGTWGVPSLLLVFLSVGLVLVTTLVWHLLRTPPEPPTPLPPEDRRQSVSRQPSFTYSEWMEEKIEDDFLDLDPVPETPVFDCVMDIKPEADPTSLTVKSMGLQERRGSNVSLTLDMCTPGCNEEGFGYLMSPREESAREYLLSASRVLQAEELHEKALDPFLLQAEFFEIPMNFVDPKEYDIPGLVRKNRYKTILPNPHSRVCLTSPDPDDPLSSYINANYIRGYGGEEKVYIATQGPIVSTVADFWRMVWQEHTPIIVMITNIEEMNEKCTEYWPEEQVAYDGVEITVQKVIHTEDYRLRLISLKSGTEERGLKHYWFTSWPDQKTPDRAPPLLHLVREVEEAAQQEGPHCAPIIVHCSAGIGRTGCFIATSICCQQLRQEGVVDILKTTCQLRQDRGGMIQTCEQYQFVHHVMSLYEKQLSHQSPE
# [12] = target: Dual specificity protein phosphatase 3 (Homo sapiens, UniProt P51452); assay: VHR phosphatase inhibition, dose response, selectivity assay for STEP inhibitor project, biochemical (AID 602374); type: functional; conditions: read-out: IC50_Mean
# Sequence of Dual specificity protein phosphatase 3 (P51452 whole entry): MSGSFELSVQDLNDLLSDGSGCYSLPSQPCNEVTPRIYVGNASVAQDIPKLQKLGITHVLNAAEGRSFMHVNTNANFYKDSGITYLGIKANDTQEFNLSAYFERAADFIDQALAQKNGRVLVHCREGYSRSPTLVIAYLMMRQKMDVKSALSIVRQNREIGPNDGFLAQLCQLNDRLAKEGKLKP
# [13] = target: T1, Tyrosine-protein phosphatase non-receptor type 22 (Homo sapiens, UniProt Q9Y2R2); assay: lymphoid phosphatase LYP inhibitors – biochemical, selectivity assay for STEP inhibitor project, dose response (AID 624241); type: functional
# T1 sequence (Q9Y2R2 whole entry): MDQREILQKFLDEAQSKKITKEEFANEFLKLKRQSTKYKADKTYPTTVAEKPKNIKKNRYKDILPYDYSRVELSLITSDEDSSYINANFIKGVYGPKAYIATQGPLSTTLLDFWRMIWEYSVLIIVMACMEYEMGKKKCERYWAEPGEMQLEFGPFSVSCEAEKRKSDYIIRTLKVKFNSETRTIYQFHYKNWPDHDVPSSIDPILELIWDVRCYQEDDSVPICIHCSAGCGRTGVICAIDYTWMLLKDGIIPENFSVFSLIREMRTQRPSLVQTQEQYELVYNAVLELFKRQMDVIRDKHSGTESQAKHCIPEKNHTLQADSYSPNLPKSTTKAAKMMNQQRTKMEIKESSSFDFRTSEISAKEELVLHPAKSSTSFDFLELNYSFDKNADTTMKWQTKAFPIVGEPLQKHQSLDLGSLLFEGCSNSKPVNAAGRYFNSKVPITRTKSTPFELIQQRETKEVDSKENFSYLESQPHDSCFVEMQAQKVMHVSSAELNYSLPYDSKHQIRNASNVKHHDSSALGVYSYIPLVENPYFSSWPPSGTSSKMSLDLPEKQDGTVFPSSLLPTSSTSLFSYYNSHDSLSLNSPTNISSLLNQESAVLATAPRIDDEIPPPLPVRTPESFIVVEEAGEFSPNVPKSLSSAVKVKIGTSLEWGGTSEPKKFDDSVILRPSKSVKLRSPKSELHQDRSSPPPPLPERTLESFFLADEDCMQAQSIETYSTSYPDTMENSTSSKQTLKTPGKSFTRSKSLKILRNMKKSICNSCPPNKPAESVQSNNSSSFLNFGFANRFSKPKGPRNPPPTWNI
# [14] = target: Histone-lysine N-methyltransferase NSD2 (Homo sapiens, UniProt O96028); type: biochemical
# Sequence of Histone-lysine N-methyltransferase NSD2 (O96028 whole entry): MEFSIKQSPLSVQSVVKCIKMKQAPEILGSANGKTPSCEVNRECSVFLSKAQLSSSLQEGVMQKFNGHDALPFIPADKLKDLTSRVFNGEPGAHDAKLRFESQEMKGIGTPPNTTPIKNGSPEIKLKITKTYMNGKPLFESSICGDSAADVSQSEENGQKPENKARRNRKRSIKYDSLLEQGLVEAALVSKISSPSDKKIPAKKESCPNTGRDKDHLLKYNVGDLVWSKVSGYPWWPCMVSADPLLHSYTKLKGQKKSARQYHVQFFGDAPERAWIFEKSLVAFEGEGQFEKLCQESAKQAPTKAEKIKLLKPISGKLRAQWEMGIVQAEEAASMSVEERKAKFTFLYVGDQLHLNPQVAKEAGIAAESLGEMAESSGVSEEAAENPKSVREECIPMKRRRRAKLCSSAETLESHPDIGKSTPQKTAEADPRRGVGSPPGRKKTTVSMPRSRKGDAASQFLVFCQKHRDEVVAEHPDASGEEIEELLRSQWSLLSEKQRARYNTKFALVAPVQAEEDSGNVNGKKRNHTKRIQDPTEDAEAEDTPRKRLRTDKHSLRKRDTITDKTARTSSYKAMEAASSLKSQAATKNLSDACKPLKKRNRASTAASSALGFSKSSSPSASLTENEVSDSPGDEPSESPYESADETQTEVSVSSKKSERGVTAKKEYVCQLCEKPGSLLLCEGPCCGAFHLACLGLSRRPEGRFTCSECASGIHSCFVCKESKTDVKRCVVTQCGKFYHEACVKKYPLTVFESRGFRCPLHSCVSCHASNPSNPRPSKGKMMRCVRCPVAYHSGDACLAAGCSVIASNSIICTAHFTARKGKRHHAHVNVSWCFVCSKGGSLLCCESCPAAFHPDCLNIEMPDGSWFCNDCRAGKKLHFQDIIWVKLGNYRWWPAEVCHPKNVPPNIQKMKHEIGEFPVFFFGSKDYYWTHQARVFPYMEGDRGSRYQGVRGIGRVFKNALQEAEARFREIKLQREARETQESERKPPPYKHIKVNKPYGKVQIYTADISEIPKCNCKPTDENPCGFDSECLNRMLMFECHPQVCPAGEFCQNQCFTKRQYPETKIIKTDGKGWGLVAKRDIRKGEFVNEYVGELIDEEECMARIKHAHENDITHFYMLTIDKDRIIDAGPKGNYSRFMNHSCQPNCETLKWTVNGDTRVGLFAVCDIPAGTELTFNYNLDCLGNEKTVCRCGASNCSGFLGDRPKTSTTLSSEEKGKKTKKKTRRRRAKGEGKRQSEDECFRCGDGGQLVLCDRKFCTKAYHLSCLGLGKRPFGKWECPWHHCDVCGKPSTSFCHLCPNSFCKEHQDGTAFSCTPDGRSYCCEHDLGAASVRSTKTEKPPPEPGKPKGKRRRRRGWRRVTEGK
# [15] = human cervical cancer cell viability loss – 24 h, plate reader, dry powder, cytotoxicity control, dose response (AID 686928); type: functional, cell-based; conditions: HeLa
# [16] = rescue of ΔF508 CFTR function, airway epithelium – human bronchial epithelial cells, plate reader, cherry-pick, two tests, dose response (AID 743267); type: functional, cell-based
# [17] = system: HEK293; assay: viability loss in HEK293T cells – cell-based, ATP luminescence, cherry-pick samples, cytotoxicity control, dose response (AID 687005); type: functional; conditions: Homo sapiens;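 also: cells exposed to compound for 48 hours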
# [18] = HEK293 Cytotoxicity Assay Measured in Cell-Based System Using Plate Reader - 7071-01_Inhibitor_Dose_CherryPick_Activity_Set2.; type: functional
# [19] = A2780 cell killing – plate reader, dry powder samples, cytotoxicity control, dose response (AID 743046); type: functional, cell-based
# [20] = OVCAR8 cell viability loss – plate reader, dry powder samples, PAX8 project, dose response (AID 743197); type: functional, cell-based; conditions: OVCAR-8
structure (smiles),measurement,setting,value
COc1ccc(Nc2cc(C)c3c(O)cccc3n2)cc1,CC50,[1],22.6 µM (active)
same,EC50,[2],1.94 µM (active)
same,EC50,[3],> 60 µM (inconclusive)
same,IC50,[4],56.3 µM (inactive)
same,IC50,[5],> 29.9 µM (inactive)
same,EC50,[6],> 29.9 µM (inactive)
O=C(Nc1cc(N2CCCCC2)ncn1)c1cc2ccccc2s1,IC50,[7],> 21.8 µM (inactive)
Cc1cccc2cc(C=C3C(=O)NC(=O)NC3=O)c(O)nc12,IC50,[8],> 128 µM (inactive)
CC(C)N1C[C@@H](CN(C)CCc2ccc(Cl)cc2)Oc2c(NC(=O)c3ccncc3)cccc2C1=O,AC50,[9],0.000332 µM (active)
CC(=O)c1ccc(S(=O)(=O)Nc2cccc(-n3cnnn3)c2)cc1,IC50,[10],0.526 µM (active)
same,IC50,[11],17.4 µM (active)
same,IC50,[12],1.51 µM (active)
same,IC50,[13],11.4 µM (active)
same,AC50,[14],12.9 µM (active)
Cc1cc2nc3c(cc2cc1F)c(NC(=O)c1ccco1)nn3C,AC50,[15],> 200 µM (inactive)
COc1cccc(-c2cc3nc(-c4ccccc4)cc(O)n3n2)c1,AC50,[16],2.35 µM (active)
C[C@H]1CN([C@@H](C)CO)S(=O)(=O)c2ccc(Br)cc2O[C@H]1CN(C)S(=O)(=O)c1ccccc1F,AC50,[17],37.9 µM (active)
same,AC50,[18],37.9 µM (active)
C[C@H]1CN([C@@H](C)CO)C(=O)c2cccc(NC(=O)Nc3ccc(C(F)(F)F)cc3)c2O[C@H]1CN(C)C(=O)NC1CCCCC1,AC50,[19],11.9 µM (active)
same,AC50,[20],> 70 µM (inactive)
